Laboratory results: patent US12492188B2, “1H-benzo[D]imidazole derivatives as TLR9 inhibitors for the treatment of fibrosis” (BRISTOL-MYERS SQUIBB COMPANY, priority 2020, dated 2025)
Read-outs that look alike come from different tables or passages of the source.

How the values were obtained:
Type in all cases: cell-based
human TLR9 = target: T1, human TLR9 (Homo sapiens, UniProt Q9NR96); assay: TLR9 inhibition reporter assay (HEK-Blue cells, secreted embryonic alkaline phosphatase reporter)
T1 construct: host or cells: HEK-Blue cells (HEK293-derived reporter line)
T1 sequence (Q9NR96 26-1032): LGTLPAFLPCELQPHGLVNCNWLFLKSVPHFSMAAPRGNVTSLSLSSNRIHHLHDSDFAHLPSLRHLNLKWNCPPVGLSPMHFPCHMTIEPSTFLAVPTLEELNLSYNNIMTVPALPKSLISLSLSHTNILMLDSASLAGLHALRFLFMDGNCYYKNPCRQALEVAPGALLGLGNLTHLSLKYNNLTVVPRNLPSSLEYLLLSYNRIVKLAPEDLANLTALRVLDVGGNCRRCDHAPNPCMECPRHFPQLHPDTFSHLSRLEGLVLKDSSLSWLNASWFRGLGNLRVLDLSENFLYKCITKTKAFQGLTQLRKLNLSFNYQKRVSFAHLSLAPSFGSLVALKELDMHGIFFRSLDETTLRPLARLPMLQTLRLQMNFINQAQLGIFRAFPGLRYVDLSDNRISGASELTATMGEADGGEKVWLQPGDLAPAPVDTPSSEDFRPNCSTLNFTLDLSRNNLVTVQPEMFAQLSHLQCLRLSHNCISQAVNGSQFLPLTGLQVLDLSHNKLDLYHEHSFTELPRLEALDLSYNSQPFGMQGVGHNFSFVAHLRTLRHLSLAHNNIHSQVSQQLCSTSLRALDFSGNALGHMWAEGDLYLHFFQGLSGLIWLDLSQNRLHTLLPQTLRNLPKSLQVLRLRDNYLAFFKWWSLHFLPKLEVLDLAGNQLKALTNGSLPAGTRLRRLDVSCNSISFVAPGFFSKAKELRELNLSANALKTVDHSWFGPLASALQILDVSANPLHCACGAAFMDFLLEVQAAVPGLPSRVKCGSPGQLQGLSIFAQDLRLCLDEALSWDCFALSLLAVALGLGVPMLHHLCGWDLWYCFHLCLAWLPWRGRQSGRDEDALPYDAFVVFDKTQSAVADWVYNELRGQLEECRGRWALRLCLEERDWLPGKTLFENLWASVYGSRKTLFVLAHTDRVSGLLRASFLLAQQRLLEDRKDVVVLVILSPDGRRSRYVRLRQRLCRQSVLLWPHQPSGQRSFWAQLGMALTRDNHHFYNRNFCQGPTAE
Summary of the method: (§1)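 Steps: seed receptor-specific HEK-Blue cells; add compound, 0.05 nM–50 μM; wait 30 min at room temperature; add final gardiquimod 7.5 μM, R848 15.9 μM or ODN2006 5 nM for TLR7, TLR8 or TLR9; incubate 22 h at 37 °C; detect NF-κB/AP-1-driven SEAP.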

human TLR7 = target: T2, human TLR7 (Homo sapiens, UniProt Q9NYK1); assay: TLR7 inhibition reporter assay (HEK-Blue cells, secreted embryonic alkaline phosphatase reporter); details: HEK-Blue cells overexpressing human TLR7, stimulated with gardiquimod 7.5 μM; read-out: TLR 7 IC50
T2 construct: host or cells: HEK-Blue cells (HEK293-derived reporter line)
T2 sequence (Q9NYK1 27-1049): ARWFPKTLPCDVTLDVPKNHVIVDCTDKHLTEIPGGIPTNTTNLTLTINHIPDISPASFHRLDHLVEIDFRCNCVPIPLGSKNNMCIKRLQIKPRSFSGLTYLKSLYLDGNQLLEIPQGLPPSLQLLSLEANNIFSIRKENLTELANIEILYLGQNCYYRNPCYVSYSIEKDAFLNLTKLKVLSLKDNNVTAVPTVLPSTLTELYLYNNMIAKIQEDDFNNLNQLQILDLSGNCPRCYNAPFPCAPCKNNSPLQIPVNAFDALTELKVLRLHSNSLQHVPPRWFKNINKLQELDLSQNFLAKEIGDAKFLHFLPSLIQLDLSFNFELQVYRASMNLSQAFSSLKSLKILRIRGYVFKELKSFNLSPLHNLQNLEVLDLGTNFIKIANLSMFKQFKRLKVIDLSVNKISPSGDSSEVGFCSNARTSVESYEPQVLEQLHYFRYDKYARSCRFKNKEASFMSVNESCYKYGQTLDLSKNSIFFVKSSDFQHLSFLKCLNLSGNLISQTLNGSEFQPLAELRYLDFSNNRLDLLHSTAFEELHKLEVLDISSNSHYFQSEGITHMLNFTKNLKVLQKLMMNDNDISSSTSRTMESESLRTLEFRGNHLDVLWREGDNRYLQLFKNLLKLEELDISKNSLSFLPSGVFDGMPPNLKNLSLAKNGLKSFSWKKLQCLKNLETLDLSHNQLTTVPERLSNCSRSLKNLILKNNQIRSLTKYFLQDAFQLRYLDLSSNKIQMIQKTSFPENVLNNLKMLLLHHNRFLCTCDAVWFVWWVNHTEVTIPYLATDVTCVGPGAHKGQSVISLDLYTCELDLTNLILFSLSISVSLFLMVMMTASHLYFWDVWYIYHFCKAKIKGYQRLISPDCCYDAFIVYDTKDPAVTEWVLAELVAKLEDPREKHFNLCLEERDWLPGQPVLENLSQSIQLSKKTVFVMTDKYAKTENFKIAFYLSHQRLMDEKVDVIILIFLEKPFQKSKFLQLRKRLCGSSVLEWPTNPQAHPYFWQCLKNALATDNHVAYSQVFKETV
Summary of the method: as §1

human TLR8 = target: T3, human TLR8 (Homo sapiens, UniProt Q9NR97); assay: TLR8 inhibition reporter assay (HEK-Blue cells, secreted embryonic alkaline phosphatase reporter); details: HEK-Blue cells overexpressing human TLR8, stimulated with R848 15.9 μM; read-out: TLR 8 IC50
T3 construct: host or cells: HEK-Blue cells (HEK293-derived reporter line)
T3 sequence (Q9NR97 27-1041): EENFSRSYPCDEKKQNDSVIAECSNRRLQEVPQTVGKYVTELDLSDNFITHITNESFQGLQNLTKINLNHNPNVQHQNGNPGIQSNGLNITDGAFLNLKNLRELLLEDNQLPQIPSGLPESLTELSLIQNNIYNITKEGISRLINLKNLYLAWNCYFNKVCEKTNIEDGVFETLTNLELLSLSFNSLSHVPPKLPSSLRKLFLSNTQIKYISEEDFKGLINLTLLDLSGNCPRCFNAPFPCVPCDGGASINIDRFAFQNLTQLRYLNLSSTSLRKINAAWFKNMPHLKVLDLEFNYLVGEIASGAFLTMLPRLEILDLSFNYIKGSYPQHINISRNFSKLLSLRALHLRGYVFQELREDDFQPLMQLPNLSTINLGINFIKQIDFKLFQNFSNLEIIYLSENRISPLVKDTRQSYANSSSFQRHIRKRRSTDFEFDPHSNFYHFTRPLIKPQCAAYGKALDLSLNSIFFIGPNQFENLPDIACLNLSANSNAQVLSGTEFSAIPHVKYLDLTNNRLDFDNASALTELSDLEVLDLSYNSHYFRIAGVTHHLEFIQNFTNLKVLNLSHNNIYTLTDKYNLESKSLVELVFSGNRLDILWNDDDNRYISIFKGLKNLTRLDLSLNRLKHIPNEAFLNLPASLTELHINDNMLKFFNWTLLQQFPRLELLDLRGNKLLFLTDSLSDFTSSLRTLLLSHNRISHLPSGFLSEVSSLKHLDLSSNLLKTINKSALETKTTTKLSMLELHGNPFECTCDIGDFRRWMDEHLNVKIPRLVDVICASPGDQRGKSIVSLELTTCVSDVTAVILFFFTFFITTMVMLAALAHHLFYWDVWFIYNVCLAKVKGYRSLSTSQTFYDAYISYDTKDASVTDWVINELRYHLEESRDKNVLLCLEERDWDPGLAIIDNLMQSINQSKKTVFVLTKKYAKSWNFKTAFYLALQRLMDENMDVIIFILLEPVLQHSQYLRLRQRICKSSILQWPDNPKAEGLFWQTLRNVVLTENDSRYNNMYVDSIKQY
Summary of the method: as §1

[1] = HEK-Blue cells overexpressing human TLR9, stimulated with ODN2006 5 nM, 22 hour incubation, reporter readout
[2] = HEK-Blue cells overexpressing human TLR9, stimulated with ODN2006 5 nM, read-out: TLR 9 IC50

IC50 (human TLR9; [1]) [nM]	IC50 (human TLR9; [2]) [nM]	IC50 (human TLR7) [nM]	IC50 (human TLR8) [nM]	IC50 (human TLR9) [nM]	IC50 (human TLR9; HEK-Blue human TLR9 reporter cells) [nM]	Structure (SMILES)
110	11.2	6600	> 50000	–	–	COc1ccc(-c2nc3ccc(C4CCN(C5CCN(C6CC6)CC5)CC4)cc3[nH]2)cc1OC [Example 29, 6-(1′-cyclopropyl-[1,4′-bipiperidin]-4-yl)-2-(3,4-dimethoxyphenyl)-1H-benzo[d]imidazole]
56	–	1800	4500	–	–	Cc1cc(-c2ccc(CN3CC4(CN(C)C4)C3)cc2)cc2c1nc(-c1ccc(S(C)(=O)=O)cc1)n2C [Example 370, 1,4-dimethyl-6-(4-((6-methyl-2,6-diazaspiro[3.3]heptan-2-yl)methyl)phenyl)-2-(4-(methylsulfonyl)phenyl)-1H-benzo[d]imidazole]
–	58	34600	> 50000	58	–	COCCN1C2CCC1CC(N1CCC(c3cc4c(cc3F)nc(-c3ccc(S(C)(=O)=O)cc3)n4C)CC1)C2 (single isomer, unassigned) [Example 238, 5-fluoro-6-(1-(8-(2-methoxyethyl)-8-azabicyclo[3.2.1]octan-3-yl)piperidin-4-yl)-1-methyl-2-(4-(methylsulfonyl)phenyl)-1H-benzo[d]imidazole]
–	30	21100	> 50000	30	–	CC(C)CN1C2CCC1CC(N1CCC(c3cc4nc(-c5ccc(S(C)(=O)=O)cc5)n(C)c4cc3F)CC1)C2 (stereo not shown) [Example 247, 6-fluoro-5-(1-(8-isobutyl-8-azabicyclo[3.2.1]octan-3-yl)piperidin-4-yl)-1-methyl-2-(4-(methylsulfonyl)phenyl)-1H-benzo[d]imidazole]
–	934	> 25000	> 25000	930	–	Cc1cc(C2CCN(C3CC4CCC(C3)N4C3COC3)CC2)cc2c1nc(-c1ccc(S(C)(=O)=O)cc1)n2C (single isomer, unassigned) [Example 159, 1,4-dimethyl-2-(4-(methylsulfonyl)phenyl)-6-(1-(8-(oxetan-3-yl)-8-azabicyclo[3.2.1]octan-3-yl)piperidin-4-yl)-1H-benzo[d]imidazole]
–	49	30700	> 50000	49	–	COCCN1C2CCC1CC(N1CCC(c3cc4nc(-c5ccc(S(C)(=O)=O)cc5)n(C)c4cc3F)CC1)C2 (stereo not shown) [Example 257, 6-fluoro-5-(1-(8-(2-methoxyethyl)-8-azabicyclo[3.2.1]octan-3-yl)piperidin-4-yl)-1-methyl-2-(4-(methylsulfonyl)phenyl)-1H-benzo[d]imidazole]
–	898	> 50000	> 50000	900	–	Cn1c(-c2ccc(S(C)(=O)=O)cc2)nc2cc(F)c(C3CCN(C4CCN(C5CCOCC5)CC4)CC3)cc21 [Example 226, 5-fluoro-1-methyl-2-(4-(methylsulfonyl)phenyl)-6-(1′-(tetrahydro-2H-pyran-4-yl)-[1,4′-bipiperidin]-4-yl)-1H-benzo[d]imidazole]
–	343	12700	> 25000	–	340	Cc1cc(C2CCN(C3CCN(C4CC4)CC3)CC2)cc2c1nc(-c1ccc(S(C)(=O)=O)c(F)c1)n2C [Example 339, 6-(1′-cyclopropyl-[1,4′-bipiperidin]-4-yl)-2-(3-fluoro-4-(methylsulfonyl)phenyl)-1,4-dimethyl-1H-benzo[d]imidazole]
–	631	45600	> 50000	630	–	Cn1c(-c2ccc(S(C)(=O)=O)cc2)nc2c(F)c(C3CCN(C4CC5CCC(C4)N5CC4COC4)CC3)ccc21 (single isomer, unassigned) [Example 194, 4-fluoro-1-methyl-2-(4-(methylsulfonyl)phenyl)-5-(1-(8-(oxetan-3-ylmethyl)-8-azabicyclo[3.2.1]octan-3-yl)piperidin-4-yl)-1H-benzo[d]imidazole]
160	159	8800	> 50000	–	–	COc1ccc(-c2nc3c(C)cc(C4CCN(C5CCN(C(C)C)CC5)CC4)cc3n2C)cc1F [Example 23, 2-(3-fluoro-4-methoxyphenyl)-6-(1′-isopropyl-[1,4′-bipiperidin]-4-yl)-1,4-dimethyl-1H-benzo[d]imidazole]
280	283	5700	> 50000	–	–	COc1ccc(-c2nc3cc(C4CCN(C5CCN(C(C)C)CC5)CC4)ccc3n2CC(F)F)cc1OC [Example 7, 1-(2,2-difluoroethyl)-2-(3,4-dimethoxyphenyl)-5-(1′-isopropyl-[1,4′-bipiperidin]-4-yl)-1H-benzo[d]imidazole]
